Source: patent publication US20250313560A1, “Novel bicyclic benzylamido pyridine derivatives as SOS1 inhibitors” (Boehringer Ingelheim International GmbH, priority 2024, published 2025)
Like-named read-outs stand apart in the source and are kept apart here.

Columns and labels:
SOS1 and KRAS G12C = SOS1 and KRAS G12C (Homo sapiens (Human), UniProt Q07889); experiment: KRAS::SOS1 AlphaScreen binding assay (KRAS G12C); settings: average of at least two measurements
SOS1 and KRAS G12D = SOS1 and KRAS G12D (Homo sapiens (Human), UniProt Q07889); experiment: KRAS::SOS1 AlphaScreen binding assay (KRAS G12D); settings: average of at least two measurements
[1] = system: ERK phosphorylation in NCI-H358 SOS2 KO cells (KRAS G12C); experiment: Erk phosphorylation assay; format: cell-based, human; settings: EGF stimulated, average of at least two measurements, read-out: pERK IC50
In short: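 NCI-H358 SOS2 KO cells (KRAS G12C) in DMEM/2% FBS were pretreated 50 min with compound, then stimulated with EGF (approx. 8 ng/mL) for 10-15 min. pERK1/2 (Thr202/Tyr204) measured in lysates by AlphaLISA SureFire; IC50 from variable-slope fit, averaged over at least two measurements.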

P450 3A4 = P450 3A4 (Homo sapiens (Human), UniProt P08684); experiment: Cytochrome P450 isoenzyme inhibition assay (P450 3A4, midazolam); format: in vitro ADME; settings: human liver microsomes, Midazolam as substrate; read-out: CYP3A4 inhibition IC50
In short: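 Midazolam (5 μM) hydroxylation by human liver microsomes (0.1 mg/ml) in 0.1 M TRIS with 5 mM MgCl2, started with 1 mM NADPH. Five compound concentrations in duplicate, e.g. top 50 μM with 1:4 dilutions. Metabolite quantified by LC-MS/MS against internal standard; IC50 from inhibition relative to no-compound control.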

CYP3A4 = CYP3A4 (Homo sapiens (Human), UniProt P08684); experiment: Mechanism-based inhibition of CYP3A4 assay (MBI 3A4); format: in vitro ADME; settings: human liver microsomes, midazolam substrate, hydroxy-midazolam formation after 30 min preincubation relative to 0 min; for inhibition at 30 min: human, probe midazolam 15 μM (hydroxy-midazolam formation), read-out: MBI inhibition % ctrl. [%] with MDZ
In short: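 Human liver microsomes (0.2 mg/mL) were preincubated with compound at 0, 5 or 25 μM plus 1 mM NADPH for 0, 10 or 30 min, then diluted 1:10 and incubated 10 min with 15 μM midazolam. Hydroxy-midazolam was measured by LC/MS-MS; readout is formation after 30 min relative to 0 min preincubation (%).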

human hepatocytes = experiment: Metabolic stability in human hepatocytes; settings: 1 μM test compound, 50% human serum, percentage of liver blood flow
Description: The metabolic degradation of a test compound is performed with hepatocytes in suspension. After recovery from cryopreservation, human hepatocytes are diluted in Dulbecco's modified eagle medium (supplemented with 3.5 μg glucagon/500 mL, 2.5 mg insulin/500 mL, 3.75 mg hydrocortisone/500 mL, 50% human serum) to obtain a final cell density of 1.0×10^6 cells/mL. Following a preincubation in a cell culture incubator (37° C., 10% CO2), test compound dissolved in DMSO is mixed with the hepatocyte suspension, resulting in a final test compound concentration of 1 μM and a final DMSO concentration of 0.05%.
The cell suspension is incubated at 37° C. (cell culture incubator, horizontal shaker) and samples are removed from the incubation after 0, 0.5, 1, 2, 4 and 6 hours. Samples are quenched with acetonitrile (containing internal standard) and pelleted by centrifugation. The supernatant is transferred to a deep-well plate and prepared for analysis of decline of parent compound by HPLC-MS/MS.
The percentage of remaining test compound is calculated using the peak area ratio (test compound/internal standard) of each incubation time point relative to the time point 0 peak area ratio. The log-transformed data are plotted versus incubation time, and the absolute value of the slope obtained by linear regression analysis is used to estimate in vitro half-life (T1/2).
CL_[sequence]_IN VIVO[mL/min/kg]=(CL_[sequence][μL/min/10^6cells]×hepatocellularity[10^6cells/g liver]×liver factor[g/kg body weight])/1000
Hepatic in vivo blood clearance (CL) is predicted according to the well-stirred liver model considering an average liver blood flow (QH) of 20.7 mL/min/kg:
CL[mL/min/kg]=CL_[sequence]_IN VIVO[mL/min/kg]×hepatic blood flow[mL/min/kg]/(CL_[sequence]_IN VIVO[mL/min/kg]+hepatic blood flow[mL/min/kg])
Results are expressed as percentage of hepatic blood flow:
QH[%]=CL[mL/min/kg]/hepatic blood flow[mL/min/kg])

[2] = Homo sapiens, NCI-H358, NCI-H358 SOS2 KO cells

P450 3A4, sequence (P08684 whole entry): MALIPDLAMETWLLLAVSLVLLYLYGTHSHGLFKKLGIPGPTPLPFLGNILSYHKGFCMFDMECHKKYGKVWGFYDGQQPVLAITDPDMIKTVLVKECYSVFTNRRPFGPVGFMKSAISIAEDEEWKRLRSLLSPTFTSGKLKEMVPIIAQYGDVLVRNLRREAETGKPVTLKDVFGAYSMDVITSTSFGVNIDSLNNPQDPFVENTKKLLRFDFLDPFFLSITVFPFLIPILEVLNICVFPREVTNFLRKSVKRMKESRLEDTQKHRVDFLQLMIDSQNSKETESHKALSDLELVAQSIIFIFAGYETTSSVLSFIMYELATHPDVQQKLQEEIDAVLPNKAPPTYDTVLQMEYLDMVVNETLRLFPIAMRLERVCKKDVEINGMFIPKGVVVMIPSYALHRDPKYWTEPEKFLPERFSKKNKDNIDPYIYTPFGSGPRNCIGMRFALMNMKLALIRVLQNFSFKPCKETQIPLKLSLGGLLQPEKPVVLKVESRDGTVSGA
CYP3A4, sequence (P08684 whole entry): as above
SOS1 and KRAS G12D, sequence (Q07889 564-1049, stated change not applied): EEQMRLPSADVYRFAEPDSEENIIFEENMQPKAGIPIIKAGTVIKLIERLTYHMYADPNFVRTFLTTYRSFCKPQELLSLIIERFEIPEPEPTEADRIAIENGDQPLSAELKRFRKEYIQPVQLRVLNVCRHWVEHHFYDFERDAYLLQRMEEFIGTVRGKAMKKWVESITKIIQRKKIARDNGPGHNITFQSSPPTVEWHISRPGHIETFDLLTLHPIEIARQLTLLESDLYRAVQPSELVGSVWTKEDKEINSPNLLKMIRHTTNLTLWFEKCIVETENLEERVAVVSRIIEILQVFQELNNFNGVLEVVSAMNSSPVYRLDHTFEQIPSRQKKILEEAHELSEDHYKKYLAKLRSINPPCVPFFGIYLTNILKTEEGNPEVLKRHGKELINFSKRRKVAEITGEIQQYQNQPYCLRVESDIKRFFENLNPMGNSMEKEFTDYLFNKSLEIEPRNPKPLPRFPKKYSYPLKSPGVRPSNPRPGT
SOS1 and KRAS G12C, sequence (Q07889 564-1049, stated change not applied): as above

Row | IC50 (SOS1 and KRAS G12C) | IC50 (SOS1 and KRAS G12D) | IC50 [1, 2] | IC50 (P450 3A4) | inhibition at 30 min (CYP3A4) | Hepatic clearance - QH[%] in human hepatocytes (human hepatocytes) | Compound | IC50 ([1]; NCI-H358 SOS2 KO cells) | MBI inhibition % ctrl. [%] with MDZ (CYP3A4)
1 | 70 nM | 69 nM | 188 nM | > 50000 nM | 97% | 18% | C[C@@H](NC(=O)c1cc(N2CCC(N3CCC4(CC4)C3)CC2)c2ncnn2c1)c1cccc(C(F)F)c1F [Example E8] | – | –
2 | 74 nM | 67 nM | 212 nM | > 50000 nM | 97% | 29% | CO[C@H]1CCN(C2CCN(c3cc(C(=O)N[C@H](C)c4cccc(C(F)F)c4F)cn4ncnc34)CC2)C1 [Example E10] | – | –
3 | 30 nM | 24 nM | 110 nM | > 50000 nM | 79% | 12% | C[C@@H](NC(=O)c1cc(N2CCC(N3C[C@@H](O)C[C@@H]3C)CC2)c2ncnn2c1)c1cccc(C(F)F)c1F [Example E12] | – | –
4 | 49 nM | 37 nM | 54 nM | > 50000 nM | 99% | 17% | C[C@@H](NC(=O)c1cc(N2CCC(N3CCC[C@H](O)C3)CC2)c2ncnn2c1)c1cccc(C(F)F)c1F [Example E18] | – | –
5 | 32 nM | 27 nM | 222 nM | > 50000 nM | 102% | 19% | C[C@@H](NC(=O)c1cc(N2CCC3(CCCCN3)CC2)c2ncnn2c1)c1cccc(C(F)F)c1F [Example E19] | – | –
6 | 44 nM | 33 nM | 146 nM | > 50000 nM | 94% | 19% | C[C@@H](NC(=O)c1cc(N2CCC3(CCCN3C)CC2)c2ncnn2c1)c1cccc(C(F)F)c1F [Example E20] | – | –
7 | 48 nM | 49 nM | 187 nM | > 50000 nM | 100% | 19% | C[C@@H](NC(=O)c1cc(N2CCC(N3CCC[C@@H](O)C3)CC2)c2ncnn2c1)c1cccc(C(F)F)c1F [Example E22] | – | –
8 | 63 nM | 53 nM | 282 nM | > 50000 nM | 91% | 17% | C[C@@H]1[C@H](O)CN1C1CCN(c2cc(C(=O)N[C@H](C)c3cccc(C(F)(F)F)c3F)cn3ncnc23)CC1 [Example E25] | – | –
9 | 86 nM | 78 nM | 147 nM | > 50000 nM | 92% | 8% | C[C@@H](NC(=O)c1cc(N2CCC(N3CC[C@H](CO)C3)CC2)c2ncnn2c1)c1cccc(C(F)(F)F)c1F [Example E26] | – | –
10 | 77 nM | 73 nM | 73 nM | > 50000 nM | 90% | 9% | C[C@@H](NC(=O)c1cc(N2CCC(N3CC[C@@H](CO)C3)CC2)c2ncnn2c1)c1cccc(C(F)(F)F)c1F [Example E27] | – | –
11 | 70 nM | 70 nM | 186 nM | > 50000 nM | 90% | 23% | C[C@@H](NC(=O)c1cc(N2CCC(N3C[C@H](O)C4(CC4)C3)CC2)c2ncnn2c1)c1cccc(C(F)(F)F)c1F [Example E28] | – | –
12 | 59 nM | 51 nM | 296 nM | > 50000 nM | 103% | 18% | C[C@@H](NC(=O)c1cc(N2CCC(N3C[C@@H](O)C4(CC4)C3)CC2)c2ncnn2c1)c1cccc(C(F)(F)F)c1F [Example E30] | – | –
13 | 33 nM | 28 nM | 153 nM | > 50000 nM | 91% | 13% | C[C@@H](NC(=O)c1cc(N2CCC(N3CCC[C@H]3CO)CC2)c2ncnn2c1)c1cccc(C(F)(F)F)c1F [Example E31] | – | –
14 | 44 nM | 43 nM | 270 nM | > 50000 nM | 92% | 23% | C[C@@H](NC(=O)c1cc(N2CCC(N3C[C@@H](O)[C@@H]3C)CC2)c2ncnn2c1)c1cccc(C(F)(F)F)c1F [Example E32] | – | –
15 | 42 nM | 34 nM | 62 nM | > 50000 nM | 106% | 10% | C[C@@H](NC(=O)c1cc(N2CCC3(CCCN3)CC2)c2ncnn2c1)c1cccc(C(F)(F)F)c1F [Example E34] | – | –
16 | 57 nM | 48 nM | 160 nM | > 50000 nM | 94% | 6% | C[C@@H](NC(=O)c1cc(N2CCC(N(C)C)CC2)c2ncnn2c1)c1cccc(C(F)(F)F)c1F [Example E35] | – | –
17 | 28 nM | 22 nM | 144 nM | > 50000 nM | 96% | 10% | C[C@@H](NC(=O)c1cc(N2CCC3(CCNC3)CC2)c2ncnn2c1)c1cccc(C(F)(F)F)c1F [Example E36] | – | –
18 | 31 nM | 21 nM | 152 nM | > 50000 nM | 90% | 25% | C[C@@H](NC(=O)c1cc(N2CCC3(CCCN3C)CC2)c2ncnn2c1)c1cccc(C(F)(F)F)c1F [Example E37] | – | –
19 | 53 nM | 54 nM | 251 nM | > 50000 nM | 75% | 43% | C[C@@H](O)CNC1CCN(c2cc(C(=O)N[C@H](C)c3cccc(C(F)(F)F)c3F)cn3ncnc23)CC1 [Example E39] | – | –
20 | 50 nM | 53 nM | 277 nM | > 50000 nM | 75% | 22% | C[C@H](O)CNC1CCN(c2cc(C(=O)N[C@H](C)c3cccc(C(F)(F)F)c3F)cn3ncnc23)CC1 [Example E40] | – | –
21 | 63 nM | 42 nM | 58 nM | > 50000 nM | 95% | 16% | C[C@@H](NC(=O)c1cc(N2CCC(N3CCC[C@H](O)C3)CC2)c2ncnn2c1)c1cccc(C(F)(F)F)c1F [Example E44] | – | –
22 | 33 nM | 30 nM | 139 nM | > 50000 nM | 97% | <4% | C[C@@H](NC(=O)c1cc(N2CCC3(CCCCN3)CC2)c2ncnn2c1)c1cccc(C(F)(F)F)c1F [Example E45] | – | –
23 | 34 nM | 31 nM | 162 nM | > 50000 nM | 98% | 9% | C[C@@H](NC(=O)c1cc(N2CCC3(CCCCN3C)CC2)c2ncnn2c1)c1cccc(C(F)(F)F)c1F [Example E46] | – | –
24 | 69 nM | 60 nM | 82 nM | > 50000 nM | 92% | 27% | C[C@@H](NC(=O)c1cc(N2CCC(N3CCCC3)CC2)c2ncnn2c1)c1cccc(C(F)(F)F)c1F [Example E48] | – | –
25 | 49 nM | 42 nM | 220 nM | > 50000 nM | 83% | 15% | C[C@@H](NC(=O)c1cc(N2CCC(NCC(C)(C)O)CC2)c2ncnn2c1)c1cccc(C(F)(F)F)c1F [Example E50] | – | –
26 | 39 nM | 31 nM | 186 nM | > 50000 nM | 85% | 12% | C[C@H](CO)NC1CCN(c2cc(C(=O)N[C@H](C)c3cccc(C(F)(F)F)c3F)cn3ncnc23)CC1 [Example E54] | – | –
27 | 69 nM | 54 nM | 397 nM | > 50000 nM | 83% | <4% | C[C@@H](NC(=O)c1cc(N2CCC(N(C)CCO)CC2)c2ncnn2c1)c1cccc(C(F)(F)F)c1F [Example E55] | – | –

Row | Compound | IC50 (SOS1 and KRAS G12C) | IC50 (SOS1 and KRAS G12D) | IC50 [1, 2] | IC50 (P450 3A4) | inhibition at 30 min (CYP3A4) | Hepatic clearance - QH[%] in human hepatocytes (human hepatocytes) | IC50 ([1]; NCI-H358 SOS2 KO cells) | MBI inhibition % ctrl. [%] with MDZ (CYP3A4)
28 | C[C@@H]1C[C@H](O)CN1C1CCN(c2cc(C(=O)N[C@H](C)c3cccc(C(F)(F)F)c3F)cn3ncnc23)CC1 [Example E24] | 56 nM | 46 nM | – | > 50000 nM | – | 22% | 325 nM | 99%
